Assays:
[1] = molecular target: T1, Angiotensin II receptor (AT-1) type-1 (Rattus norvegicus, UniProt P29089+P25095); test: In vitro binding affinity to angiotensin II receptor, type 1 in rat adrenal cortex preparation; format: tissue-based
T1 sequence (P29089 whole entry): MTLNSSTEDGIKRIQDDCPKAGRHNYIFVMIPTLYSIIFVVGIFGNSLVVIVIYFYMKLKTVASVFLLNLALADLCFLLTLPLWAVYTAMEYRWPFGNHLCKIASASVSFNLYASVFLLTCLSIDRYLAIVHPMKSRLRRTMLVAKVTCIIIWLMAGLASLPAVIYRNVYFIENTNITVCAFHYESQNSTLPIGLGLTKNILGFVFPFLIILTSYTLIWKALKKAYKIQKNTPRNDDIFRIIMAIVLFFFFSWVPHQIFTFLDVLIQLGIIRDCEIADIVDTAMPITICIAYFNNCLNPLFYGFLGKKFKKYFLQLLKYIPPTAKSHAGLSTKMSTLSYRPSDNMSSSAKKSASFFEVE
T1 sequence (P25095 whole entry): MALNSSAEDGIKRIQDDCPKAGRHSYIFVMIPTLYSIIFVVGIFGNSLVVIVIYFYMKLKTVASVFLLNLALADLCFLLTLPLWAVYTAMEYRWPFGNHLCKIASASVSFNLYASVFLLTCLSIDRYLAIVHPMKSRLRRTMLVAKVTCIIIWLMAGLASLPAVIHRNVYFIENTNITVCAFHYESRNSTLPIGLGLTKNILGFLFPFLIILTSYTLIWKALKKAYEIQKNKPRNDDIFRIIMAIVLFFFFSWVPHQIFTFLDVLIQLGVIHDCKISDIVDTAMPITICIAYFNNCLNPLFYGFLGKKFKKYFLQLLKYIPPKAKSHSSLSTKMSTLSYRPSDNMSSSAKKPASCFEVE

[2] = species: Oryctolagus cuniculus; test: In vitro functional antagonism in isolated rabbit aortic rings precontracted by AII; details: Aorta
[3] = tested on: Rattus norvegicus; test: In vivo percent inhibition of AII induced increase in diastolic blood pressure in pithed rats at a dose of 3 mg/kg, i.d.; format: functional; details: Artery, route intraduodenal

Row | IC50 [1] [nM] | IC50 [2] [nM] | SMILES | inhibition in vivo at 3 mg/kg [3] [%]
1 | 4.1 | – | CCCCc1ccc(CNC(=O)Cc2ccccc2)c(=O)n1Cc1ccc(-c2ccccc2-c2nn[nH]n2)cc1 | –
2 | 9 | 10 | CCCCNC(=O)NCc1ccc(CCCC)n(Cc2ccc(-c3ccccc3-c3nn[nH]n3)cc2)c1=O | 10.3
3 | 1.5 | 1 | CCCCc1ccc(CNCc2ccccc2)c(=O)n1Cc1ccc(-c2ccccc2-c2nn[nH]n2)cc1 | 12.4
4 | 19 | 20 | CCCCc1ccc(CN)c(=O)n1Cc1ccc(-c2ccccc2-c2nn[nH]n2)cc1 | 2.8
5 | 5.7 | – | CCCCc1ccc(CNC(=O)CCC)c(=O)n1Cc1ccc(-c2ccccc2-c2nn[nH]n2)cc1 | –
6 | 3.3 | 9 | CCCCc1ccc(CNS(=O)(=O)c2ccc(C)cc2)c(=O)n1Cc1ccc(-c2ccccc2-c2nn[nH]n2)cc1 | –
7 | 4.1 | 7 | CCCCc1ccc(CNS(=O)(=O)c2ccccc2)c(=O)n1Cc1ccc(-c2ccccc2-c2nn[nH]n2)cc1 | 25.2
8 | 3.8 | 2 | CCCCc1ccc(CN(Cc2ccccc2)S(C)(=O)=O)c(=O)n1Cc1ccc(-c2ccccc2-c2nn[nH]n2)cc1 | 41.2
9 | 16.5 | 60 | CCCCc1ccc(CN(Cc2ccccc2)S(=O)(=O)c2ccc(C)cc2)c(=O)n1Cc1ccc(-c2ccccc2-c2nn[nH]n2)cc1 | 36.6
10 | 18 | – | CCCCc1ccc(C#N)c(=O)n1Cc1ccc(-c2ccccc2-c2nn[nH]n2)cc1 | –
11 | 6.1 | 7 | CCCCc1ccc(C)c(=O)n1Cc1ccc(-c2ccccc2-c2nn[nH]n2)cc1 | –
12 | 4.2 | 2 | CCCCc1ccc(CN(C)S(=O)(=O)c2ccccc2)c(=O)n1Cc1ccc(-c2ccccc2-c2nn[nH]n2)cc1 | 68.7
13 | 2.9 | 2 | CCCCc1ccc(CNC(=O)N(C)C)c(=O)n1Cc1ccc(-c2ccccc2-c2nn[nH]n2)cc1 | 28
14 | 18 | 4 | CCCCc1cccc(=O)n1Cc1ccc(-c2ccccc2-c2nn[nH]n2)cc1 | –
15 | 4.2 | 8 | CCCCc1ccc(CN(C)S(=O)(=O)c2ccc(C)cc2)c(=O)n1Cc1ccc(-c2ccccc2-c2nn[nH]n2)cc1 | –
16 | 3.5 | 2 | CCCCc1ccc(CN(CC)S(C)(=O)=O)c(=O)n1Cc1ccc(-c2ccccc2-c2nn[nH]n2)cc1 | –
17 | 21 | 90 | CCCCc1ccc(CNC(=O)NC2CCCCC2)c(=O)n1Cc1ccc(-c2ccccc2-c2nn[nH]n2)cc1 | 0
18 | 6 | 10 | CCCCc1ccc(CNC(=O)OC(C)(C)C)c(=O)n1Cc1ccc(-c2ccccc2-c2nn[nH]n2)cc1 | 68.9
19 | 20 | – | CCCCc1ccc(CN(Cc2ccccc2)C(=O)OC(C)(C)C)c(=O)n1Cc1ccc(-c2ccccc2-c2nn[nH]n2)cc1 | –
20 | 2.8 | 1 | CCCCc1ccc(CN(Cc2ccccc2)C(C)=O)c(=O)n1Cc1ccc(-c2ccccc2-c2nn[nH]n2)cc1 | 76.3
21 | 2.2 | 2 | CCCCc1ccc(CNS(C)(=O)=O)c(=O)n1Cc1ccc(-c2ccccc2-c2nn[nH]n2)cc1 | 54.8
22 | 1.9 | 0.9 | CCCCc1ccc(CN(C(C)C)S(C)(=O)=O)c(=O)n1Cc1ccc(-c2ccccc2-c2nn[nH]n2)cc1 | 82.7
23 | 12 | 20 | CCCCc1ccc(CN(Cc2ccccc2)S(=O)(=O)c2ccccc2)c(=O)n1Cc1ccc(-c2ccccc2-c2nn[nH]n2)cc1 | 75.7
24 | 3.8 | 3 | CCCCc1ccc(CNC(C)=O)c(=O)n1Cc1ccc(-c2ccccc2-c2nn[nH]n2)cc1 | 8.6
25 | 6.5 | – | CCCCc1ccc(CNC(=O)N(CC)CC)c(=O)n1Cc1ccc(-c2ccccc2-c2nn[nH]n2)cc1 | –
26 | 1.2 | 0.2 | CCCCc1ccc(CN(C)S(C)(=O)=O)c(=O)n1Cc1ccc(-c2ccccc2-c2nn[nH]n2)cc1 | 83.4
27 | – | 3 | CCCCc1nc(Cl)c(CO)n1Cc1ccc(-c2ccccc2-c2nn[nH]n2)cc1 | 73.6
28 | 13 | – | CCCCc1ccc(CN(C)C(=O)N(C)C)c(=O)n1Cc1ccc(-c2ccccc2-c2nn[nH]n2)cc1 | –
29 | 22 | – | CCCCc1ccc(CNS(=O)(=O)C(F)(F)F)c(=O)n1Cc1ccc(-c2ccccc2-c2nn[nH]n2)cc1 | –
30 | 18 | 30 | CCCCc1ccc(CNC(=O)Nc2ccccc2)c(=O)n1Cc1ccc(-c2ccccc2-c2nn[nH]n2)cc1 | 0
